# Test results published in patent US20210290676A1, “IMPROVING THE EFFICACY AND SAFETY OF ADOPTIVE CELLULAR THERAPIES” (University of Southern California, priority 2018, published 2021).
# Assays:
# [1] = system: Pgp+ (DiOC2(3)-dye effluxing) T cells; assay: DiOC2(3) dye efflux flow cytometry of inhibitor-treated T cells; type: cell-based, human; conditions: treatment for 13 days, IL2 + CD3 and CD28 antibodies
# In short: (§1)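 Donor PBMC-derived T cells, stimulated with IL2 (50 IU/ml) and/or CD3/CD28 antibodies (30 ng/ml), were exposed to inhibitors from day 1 for about 13 days with periodic drug re-addition. Cells were loaded with DiOC2(3) (60 ng/ml, 4° C, 40 min), effluxed at 37° C for 90 min, and optionally stained with CD62L-APC. Flow cytometry scored DiOC2(3)-dull (Pgp+) and CD62L+ populations.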
# [2] = system: CD8+CD45RA+CCR7+CD62L+ T cells; assay: Flow cytometry for CD8, CD45RA, CCR7 and CD62L on inhibitor-treated T cells; type: cell-based, human; conditions: cells cultured for 14 days
# In short: (§2)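 Donor T cells were isolated from PBMC with CD3 microbeads and activated overnight in XVIVO 15 with IL2 50 IU/ml plus 30 ng/ml anti-CD3/CD28. They were treated with drugs from day 1, with medium and drug refreshed on days 7 and 13. After 13–14 days, cells were stained for CD8, CD45RA, CCR7 and CD62L (4 °C, 1 h) and analysed by flow cytometry.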
# [3] = system: CD45RA+CCR7+CD62L+ T cells; assay: Flow cytometry for CD45RA, CCR7 and CD62L on inhibitor-treated T cells (all T cells); type: cell-based, human; conditions: cells cultured for 14 days
# In short: as §2
# [4] = system: Pgp+ (DiOC2(3)-dye effluxing cells) and CD62L+ T cells; assay: DiOC2(3) dye efflux plus CD62L-APC staining, flow cytometry of inhibitor-treated T cells; type: cell-based, human; conditions: treatment for 13 days, IL2 + CD3 and CD28 antibodies
# In short: as §1
# [5] = system: Nalm6-GLuc cells; assay: Blinatumomab induced cell death by inhibitor-treated T cells, Matador cytotoxicity assay; type: cell-based; conditions: Blinatumomab 100 ng/million T cells, overnight
# Procedure: After 20 days of treatment with the inhibitors, cells from the preceding experiment were tested for their ability to induce Blinatumomab induced cell death using the Matador cytotoxicity assay. For this purpose, untreated and inhibitors-treated T cells were plated in a 24 well plate at 2×10^5 cells/well either alone or in the presence of 2×10^5 Nalm6-GLuc cells in XVIVO medium without any additional growth factors. Blinatumomab (Blincyto) was added at final concentration of 100 ng/million T cells. Cells were cultured overnight and next day supernatant was collected and assayed using the Matador assay. For the Matador Assay, 15 μl of supernatant was added to 15 μl of XVIVO medium in each well of a 384-well plate and hGLuc assay was done by adding 15 μl of 1:100 CTZ per well in well mode.
# [6] = Leukapheresis with and without mobilization and manufacturing of CAR-T/TCR-T cells from cancer patients; type: in vivo, human
# Procedure: A study is conducted to compare the generation of cell therapy products from cancer patients who have received 2 or more cycles of prior chemotherapy. Patients with different types of different cancers (e.g., diffuse large B cell lymphoma, acute B-ALL, CLL, multiple myeloma, breast cancer, ovarian cancer, lung cancer etc.) are eligible. Leukapheresis products are collected from the subjects with and without mobilization with Perixafor (0.24 mg/kg subcutaneously daily on days 1-3). T cells are isolated and used for manufacturing of CAR-T and TCR-T cells using lentiviral mediated gene transduction as described in the preceding sections.
# [7] = system: T cells; assay: In vitro expansion of CAR/TCR T cells with bispecific engagers and antigen presenting cells or substrate (CFSE staining); type: cell-based, human
# Procedure: Buffy coat cells are obtained from healthy de-identified adult donors from the Blood Bank and used to isolate peripheral blood mononuclear cells (PBMC) by Ficoll-Hypaque gradient centrifugation. PBMC are either used as such or used to isolate T cells using CD3 magnetic microbeads (Miltenyi Biotech) and following the manufacturer's instructions. PBMC or isolated T cells are re-suspended in XVIVO medium (Lonza) supplanted with 10 ng/ml CD3 antibody, 10 ng/ml CD28 antibody and 100 IU recombinant human-IL2. In an alternate embodiment, PBCM or T cells are activated by resuspending them at concentration of 5×10^5 cells/ml in fresh XVIVO media containing Blinatumomab (10 ng/ml) plus irradiated (100 Gy) REC-1 cells (Mantle Cell lymphoma; ATCC Catalog #CRL-3004) at concentration of 5×10^6 cells/ml in the presence of 50 IU recombinant human-IL2. In another alternate embodiment, the cell culture medium further contains a purified CD19×CD28 bispecific antibody (SEQ ID NO: 2708, 2705 or 2706) and/or a CD19×41BB bispecific antibody (SEQ ID NO: 2761, 2762, 2758 or 2764) each at concentration of about 10 ng/ml. Cells are cultured at 37° C., in a 5% CO2 humidified incubator. Cells are activated in the above medium for 1 day prior to infection with lentiviral vectors encoding a CAR or a TCR (e.g., SEQ ID NO: 2822 to 2835) or a TCR (SEQ ID NO: 2836). In general, primary cells (e.g. T cells) are infected in the morning using spin-infection (1800 rpm for 90 minutes at 37° C. with 300 μl of concentrated virus that has been re-suspended in XVIVO medium in the presence of 8 μg/ml of Polybrene® (Sigma, Catalog no. H9268). After the infection, the cells are pelleted and resuspended at concentration of 5×10^5 cells/ml in fresh XVIVO media containing Blinatumomab (10 ng/ml) plus irradiated (100 Gy) REC-1 (Mantle Cell lymphoma; ATCC Catalog #CRL-3004) cells (5×10^6 cells/ml) and 50 IU recombinant human-IL2. Cells are cultured in the above medium for 10-15 days. Culture media is supplemented with fresh REC-1 cells, blinatumomab and IL2 every 2-4 days. […] The expanded CAR-T cells are subsequently used for in vitro cytotoxicity studies, in vivo efficacy studies in NSG mice and clinical trial of patients with cancers expressing the antigens targeted by the CAR/TCR using methods known in the art.
# The above experiment is also repeated using CD19+ RAJI and NALM6 cells. […] Thus, mantle cell lymphoma cells and, in particular, REC-1 cells are the preferred antigen presenting cells for expansion of T cells (e.g., CAR-T cells, TCR-T cells and TILs) when used in conjuction with bispecific T cell engagers that has at least one binding domain that binds to an antigen expressed on REC-1 (e.g, CD19, CD20, CD22 and BCMA). […]
molecule,measurement,setting,value
CCC(CC)n1ccc2c(C(=O)NCc3c(C)cc(C)[nH]c3=O)cc(C#N)cc21 [EI1],p2: pgp+ from Live cells,[1]; 500 nM,33.53
same,p2: pgp+ from Live cells,[1]; 1 μM,59.77
same,"GATE P4 CD8(PerCP)+, CD45RA(FITC)+, CCR7 (PE)+, CD62L(APC)",[2]; 500 nM,76.19%
same,"GATE P4 CD8(PerCP)+, CD45RA(FITC)+, CCR7 (PE)+, CD62L(APC)",[2]; 1 μM,78.47%
same,"GATE P6 CD45RA(FITC)+, CCR7 (PE)+, CD62L(APC)",[3]; 500 nM,67.64%
same,"GATE P6 CD45RA(FITC)+, CCR7 (PE)+, CD62L(APC)",[3]; 1 μM,66.83%
same,p5: double +ve pgp+ and CD62L-APC+ from Live cells,[4]; 500 nM,10.2
same,p5: double +ve pgp+ and CD62L-APC+ from Live cells,[4]; 1 μM,19.21
same,Blinatumomab induced cytotoxicity compared to untreated T cells,[5]; T cells after 20 days of treatment at 500 nM,significant increase in cytotoxicity
Cc1cc(C)c(CNC(=O)c2cc(-c3ccc(CN4CCOCC4)cc3)cc3c2cnn3C2CCCC2)c(=O)[nH]1 [EPZ005687],p2: pgp+ from Live cells,[1]; 10 nM,23.99
same,p2: pgp+ from Live cells,[1]; 100 nM,16.94
same,"GATE P4 CD8(PerCP)+, CD45RA(FITC)+, CCR7 (PE)+, CD62L(APC)",[2]; 10 nM,74.86%
same,"GATE P4 CD8(PerCP)+, CD45RA(FITC)+, CCR7 (PE)+, CD62L(APC)",[2]; 100 nM,79.65%
same,"GATE P6 CD45RA(FITC)+, CCR7 (PE)+, CD62L(APC)",[3]; 10 nM,64.01%
same,"GATE P6 CD45RA(FITC)+, CCR7 (PE)+, CD62L(APC)",[3]; 100 nM,69.92%
same,p5: double +ve pgp+ and CD62L-APC+ from Live cells,[4]; 10 nM,5.21
same,p5: double +ve pgp+ and CD62L-APC+ from Live cells,[4]; 100 nM,3.87
same,Blinatumomab induced cytotoxicity compared to untreated T cells,[5]; T cells after 20 days of treatment at 100 nM,significant increase in cytotoxicity
Cc1cc(=O)n(C)c2cc(N3C(=O)CC[C@H](NS(=O)(=O)CC(C)C)[C@H]3c3ccc(Cl)cc3)ccc12 [LP99],p2: pgp+ from Live cells,[1]; 500 nM,19.46
same,p2: pgp+ from Live cells,[1]; 1 μM,20.66
same,"GATE P4 CD8(PerCP)+, CD45RA(FITC)+, CCR7 (PE)+, CD62L(APC)",[2]; 500 nM,79.25%
same,"GATE P4 CD8(PerCP)+, CD45RA(FITC)+, CCR7 (PE)+, CD62L(APC)",[2]; 1 μM,79.77%
same,"GATE P6 CD45RA(FITC)+, CCR7 (PE)+, CD62L(APC)",[3]; 500 nM,69.67%
same,"GATE P6 CD45RA(FITC)+, CCR7 (PE)+, CD62L(APC)",[3]; 1 μM,67.58%
same,p5: double +ve pgp+ and CD62L-APC+ from Live cells,[4]; 500 nM,3.52
same,p5: double +ve pgp+ and CD62L-APC+ from Live cells,[4]; 1 μM,4.18
same,Blinatumomab induced cytotoxicity compared to untreated T cells,[5]; T cells after 20 days of treatment at 1 μM,significant increase in cytotoxicity
"c1cc(CN2CCCNCCNCCCNCC2)ccc1CN1CCCNCCNCCCNCC1 [Perixafor, 1,1′-[1,4-phenylenebis(methylene)]bis [1,4,8,11-tetraazacyclotetradecane]]",yield of T cells in the initial leukapheresis product,"[6]; cancer patients with 2 or more cycles of prior chemotherapy, with versus without mobilization",improves the yield
same,"effect on gene transduction, CAR/TCR expression, in vitro and in vivo expansion, cytotoxicity, cytokine production and anti-tumor efficacy of CAR-T/TCR-T products",[6]; with versus without mobilization,no major adverse effect
Blinatumomab: a CD19×CD3 bispecific antibody,expansion of CAR-T cells,"[7]; 10 ng/ml with CD19-ECD beads, CD28 antibody 10 ng/ml and IL2 50 IU, 10-25 days",Robust expansion
same,"expansion of cells, CFSE staining","[7]; 10 ng/ml with irradiated REC-1 cells and 50 IU IL2, 10-15 days",Robust expansion
same,degree of expansion of CAR or TCR expressing T cells,[7]; co-culture with CD19+ RAJI and NALM6 cells instead of REC-1 cells,less than that observed with REC-1 cells
same,expansion of CAR-expressing PBMC and/or T cells,"[7]; combination of Blinatumomab, CD19×CD28 bispecific antibody, REC-1 cells and IL2",Robust expansion
GM-CSF: cytokine used as mobilization agent,yield of leukapheresis product for generation of CAR-T cells,[6]; mobilization prior to leukapheresis,improve the yield
